Values of other authors as cited in patent US8067542B1 (priority 2003, dated 2011).

Test system: Verticillium dahliae
Conditions: AlfAFP expressed in potato (Gao et al, 2000); cited from earlier work

## Alf - wt: native alfalfa antifungal protein (plant defensin from Medicago sativa seeds), SEQ ID NO:2 (RTCENLADKYRGPCFSGCDTHCTTKENAVSGRCRDDFRCWCTKRC; listed as Medicago sativa)
  resistance to early dying disease in potato: confer resistance to early dying disease
